Type in all cases: cell-based, human
The test system of assay [1] is BARD1. Description: Immunoblot of BARD1 protein levels in breast carcinoma cells. The conditions noted are these: for effect of pretreatment on E2-induced accumulation of BARD1 protein: MCF7, steroid depleted, pretreatment before E2; for BARD1 protein levels under proteasome inhibition: MCF7, steroid depleted medium, 0.5, 4 or 8 hours. As to the method: (§1) MCF7 cells were obtained from the American Type Culture Collection (#HTB-22). T47D cells were provided by Baylor College of Medicine. Both lines were normally maintained at 37° C. with 5% CO2 in DMEM with 1 mM L-glutamine (Gibco) supplemented with 10% Fetalclone serum (HyClone) and 1% non-essential amino acids (Gibco). For steroid depleted conditions (denoted as CSS), cells were cultured in phenol-free DMEM with 1 mM L-glutamine and 25 mM HEPES supplemented with 10% charcoal/dextran treated fetal bovine serum (Gemini Bioproducts). 17-β-estradiol and MG132 were obtained from Sigma-Aldrich. Cycloheximide, U0126, and p38 inhibitor were obtained from Calbiochem. ICI 182780 was obtained from Tocris Biosciences. LY294002 was obtained from Cell Signaling Technology.
(§2) Whole cell lysates were prepared by washing cells twice with PBS and then scraping into ice-cold PBS. Pelleted cells were resuspended in modified RIPA buffer (50 mM Tris base, 150 mM NaCl, 2 mM EDTA, 1% Triton X-100, 0.5% Na-deoxycholate, 0.1% SDS, 50 mM NaF, 5 mM Na3VO4, plus Roche protease inhibitor tablets). Lysates were incubated for 30 minutes on ice, clarified by centrifugation, and protein concentration determined by Bradford assay (BioRad). Where indicated, lysates harvested without phosphatase inhibitors were treated with λ-phosphatase (New England Biolabs) according to manufacturer's instructions. 100 μg of total protein was loaded per lane for Tris-glycine SDS-PAGE. Samples were transferred to PVDF membrane (Millipore) for 200 volt-hours at 50 V constant at 16° C. Membranes were blocked in 5% dry non-fat milk (Carnation) dissolved in either PBS or TBS (25 mM Tris pH 8.0, 135 mM NaCl, 2.5 mM KCl). Primary antibody incubations were performed overnight at 4° C. diluted in either 0.5% dry non-fat milk/PBS-Tween-20 0.1% or in 3% BSA (Santa Cruz Biotechnology)/TBS-Tween-20 0.1%. Antibody suppliers are: BRCA1 (Ab-4 and Ab-1, Calbiochem); BARD1 (Bethyl Laboratories); Lamin A/C, phospho-(Ser/Thr) Akt Substrate, phospho-5473 Akt, and Akt (Cell Signaling Technology); Cyclin D1 (Lab Vision Corp.); Tubulin (Chemicon). Secondary antibodies were obtained from Amersham/GE Healthcare. Densitometry was performed on 600 dpi TIFF scans of Western blot films with Quantity One software (BioRad). Density values for BRCA1 and BARD1 in each sample were normalized by the value of the corresponding Lamin A/C density as a control for loading.
A general note: Immunoblotting shows a protein as a band on a membrane.

The test system of assay [2] is BRCA1. The experiment in a line: Immunoblot of BRCA1 protein levels in breast carcinoma cells. The conditions noted are these: for effect of pretreatment on E2-induced accumulation of BRCA1 protein: MCF7, steroid depleted, pretreatment before E2; for BRCA1 protein levels under proteasome inhibition: MCF7, steroid depleted medium, 0.5, 4 or 8 hours. The procedure: as §1, §2

The test system of assay [3] is Akt. Description: Immunoblot of phosphorylated Akt (pS473), Akt activation. The following applies: MCF7, steroid depleted medium, after treatment. As to the method:
as §1
Whole cell lysates were prepared by washing cells twice with PBS and then scraping into ice-cold PBS. Pelleted cells were resuspended in modified RIPA buffer (50 mM Tris base, 150 mM NaCl, 2 mM EDTA, 1% Triton X-100, 0.5% Na-deoxycholate, 0.1% SDS, 50 mM NaF, 5 mM Na3VO4, plus Roche protease inhibitor tablets). Lysates were incubated for 30 minutes on ice, clarified by centrifugation, and protein concentration determined by Bradford assay (BioRad). […] Densitometry was performed on 600 dpi TIFF scans of Western blot films with Quantity One software (BioRad). […]

Structures are written as SMILES. Where a SMILES comes first, the peptide text is derived from it. The star is where a group is joined. Cbz = O=C(OCc1ccccc1)*

For the compound `C[C@]12CC[C@@H]3c4ccc(O)cc4C[C@@H](CCCCCCCCC[S+]([O-])CCCC(F)(F)C(F)(F)F)[C@H]3[C@@H]1CC[C@@H]2O` (some centres unmarked) [ICI 182780], in assay [1], the “effect of pretreatment on E2-induced accumulation of BARD1 protein” value is “abolished”. Besides, the “effect of pretreatment on E2-induced accumulation of BRCA1 protein” value (shortened to “effect of pretreatment … of BRCA1 protein”) in assay [2] was “abolished”.
For `N#CC(=C(/N)Sc1ccccc1N)/C(C#N)=C(/N)Sc1ccccc1N` [MEK 1/2], in assay [2], the “effect of pretreatment … of BRCA1 protein” value was “no effect”.
For the compound `CC(C)C[C@@H](C=O)NC(=O)[C@H](CC(C)C)NC(=O)[C@H](CC(C)C)NC(=O)OCc1ccccc1` [MG132] (Cbz-Leu-Leu-Leu-aldehyde), in assay [1], the “BARD1 protein levels under proteasome inhibition” value is given as “accumulation”. Besides, the “BRCA1 protein levels under proteasome inhibition” value in assay [2] was “accumulation”. Further, the “Akt activation (phosphorylated Akt pS473)” value in assay [3] is listed as “dramatic activation”.
Take `CC(C)C[C@H](NC(=O)[C@H](Cc1ccccc1)NC(=O)c1cnccn1)B(O)O` [bortezomib]: the “BARD1 protein levels under proteasome inhibition” value in assay [1] is “rapidly increased”. Besides, the “BRCA1 protein levels under proteasome inhibition” value in assay [2] was “rapidly increased”. The “Akt activation (phosphorylated Akt pS473)” value in assay [3] is given as “only minor activation”.
For the compound `C[C@@H]1C[C@@H]([C@H](O)CC2CC(=O)NC(=O)C2)C(=O)[C@@H](C)C1` [cycloheximide, Cycloheximide], the “effect of pretreatment on E2-induced accumulation of BARD1 protein” value in assay [1] is “did not prevent”. Besides, the “effect of pretreatment … of BRCA1 protein” value in assay [2] is recorded as “did not prevent”.
